These results are taken from patent US8580918B2, “Peptidic GLP-2 agonists” (Ferring B.V., priority 2009, dated 2013).

Where a SMILES comes first, the peptide text is derived from it. [ ]: non-standard residue; d: D form. The star is where a group is joined. X1 = NC(=O)CCOCCOCCOCCOCCOCCOCCNC(=O)COCC(=O)NCCCOCCOCCOCCCN*; dPhe(3-Cl) = N[C@H](Cc1cccc(Cl)c1)C(=O)O; X2 = NC(=O)COCC(=O)NCCCOCCOCCOCCCN*; d2Thi = N[C@H](Cc1cccs1)C(=O)O; Nle = CCCC[C@H](N)C(=O)O; NHBn = c1ccc(CN*)cc1

The nature of this series: Pharmacokinetics in rats after intravenous bolus injection (systemic clearance). Conditions: rat, plasma, 0.2 mg FB/kg, adult male Sprague-Dawley rats, i.v. bolus, dose 0.20 mg FB/kg, read-out: CL (ml/kg/min) Average. It counts as in vivo. The method in brief: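 Adult male Sprague-Dawley rats (3-4, doubly cannulated) given IV jugular bolus at 0.1-1.0 mg/kg; serial carotid blood to K2EDTA plasma, LC/MS/MS quantitation. CL = dose/kg divided by AUC∞ (noncompartmental, trapezoid); mean ± SD.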
As to `CCCC[C@H](NC(=O)[C@H](CCC(=O)O)NC(=O)[C@H](CC(=O)O)NC(=O)[C@H](CO)NC(=O)[C@H](Cc1ccccc1)NC(=O)[C@H](CO)NC(=O)CNC(=O)[C@H](CC(=O)O)NC(=O)CNC(=O)[C@@H](N)Cc1c[nH]cn1)C(=O)N[C@H](Cc1ccccc1)C(=O)N[C@H](C(=O)N[C@H](C(=O)N[C@@H](CC(C)C)C(=O)N[C@@H](CC(=O)O)C(=O)N[C@@H](CC(C)C)C(=O)N[C@@H](CC(C)C)C(=O)N[C@@H](C)C(=O)N[C@@H](C)C(=O)N[C@@H](CCCNC(=N)N)C(=O)N[C@@H](CC(=O)O)C(=O)N[C@@H](Cc1ccccc1)C(=O)N[C@H](C(=O)N[C@@H](CC(N)=O)C(=O)N[C@@H](Cc1c[nH]c2ccccc12)C(=O)N[C@@H](CC(C)C)C(=O)N[C@H](C(=O)N[C@@H](CCC(N)=O)C(=O)N[C@H](C(=O)N[C@@H](CCCCN)C(=O)N[C@H](C(=O)N[C@H](C(=O)N[C@@H](CC(=O)O)C(=O)NCc1ccccc1)[C@@H](C)O)[C@@H](C)CC)[C@@H](C)O)[C@@H](C)CC)[C@@H](C)CC)[C@@H](C)CC)[C@@H](C)O` [Compound 58, [Gly2,Nle10,D-Phe11,Leu16] hGLP-2(1-33)-NH-Benzyl] (H-HGDGSFSDE[Nle][dF]TILDLLAARDFINWLIQTKITD-NHBn), the clearance was 0.1 mL/kg/min.

Turning to `CCCC[C@H](NC(=O)[C@H](CCC(=O)O)NC(=O)[C@H](CC(=O)O)NC(=O)[C@H](CO)NC(=O)[C@H](Cc1ccccc1)NC(=O)[C@H](CO)NC(=O)CNC(=O)[C@H](CC(=O)O)NC(=O)CNC(=O)[C@@H](N)Cc1cnc[nH]1)C(=O)N[C@H](Cc1ccccc1)C(=O)N[C@H](C(=O)N[C@H](C(=O)N[C@@H](CC(C)C)C(=O)N[C@@H](CC(=O)O)C(=O)N[C@@H](CC(C)C)C(=O)N[C@@H](CC(C)C)C(=O)N[C@@H](C)C(=O)N[C@@H](C)C(=O)N[C@@H](CCCNC(=N)N)C(=O)N[C@@H](CC(=O)O)C(=O)N[C@@H](Cc1ccccc1)C(=O)N[C@H](C(=O)N[C@@H](CC(N)=O)C(=O)N[C@@H](Cc1c[nH]c2ccccc12)C(=O)N[C@@H](CC(C)C)C(=O)N[C@H](C(=O)N[C@@H](CCC(N)=O)C(=O)N[C@H](C(=O)N[C@@H](CCCCN)C(=O)N[C@H](C(=O)N[C@H](C(=O)N[C@@H](CC(=O)O)C(=O)O)[C@@H](C)O)[C@@H](C)CC)[C@@H](C)O)[C@@H](C)CC)[C@@H](C)CC)[C@@H](C)CC)[C@@H](C)O` [Compound 59, [Gly2,Nle10,D-Phe11,Leu16] hGLP-2(1-33)-OH] (H-HGDGSFSDE[Nle][dF]TILDLLAARDFINWLIQTKITD-OH), the clearance worked out at 0.22 mL/kg/min.

Consider `CCCC[C@H](NC(=O)[C@H](CCC(=O)O)NC(=O)[C@H](CC(=O)O)NC(=O)[C@H](CO)NC(=O)[C@H](Cc1ccccc1)NC(=O)[C@H](CO)NC(=O)CNC(=O)[C@H](CC(=O)O)NC(=O)CNC(=O)[C@@H](N)Cc1c[nH]cn1)C(=O)N[C@H](Cc1ccccc1)C(=O)N[C@H](C(=O)N[C@H](C(=O)N[C@@H](CC(C)C)C(=O)N[C@@H](CC(=O)O)C(=O)N[C@@H](Cc1ccccc1)C(=O)N[C@@H](CC(C)C)C(=O)N[C@@H](C)C(=O)N[C@@H](C)C(=O)N[C@@H](CCCNC(=N)N)C(=O)N[C@@H](CC(=O)O)C(=O)N[C@@H](Cc1ccccc1)C(=O)N[C@H](C(=O)N[C@@H](CC(N)=O)C(=O)N[C@@H](Cc1c[nH]c2ccccc12)C(=O)N[C@@H](CC(C)C)C(=O)N[C@H](C(=O)N[C@@H](CCC(N)=O)C(=O)N[C@H](C(=O)N[C@@H](CCCCN)C(=O)N[C@H](C(=O)N[C@H](C(=O)N[C@@H](CC(=O)O)C(=O)NCCCOCCOCCOCCCNC(=O)COCC(N)=O)[C@@H](C)O)[C@@H](C)CC)[C@@H](C)O)[C@@H](C)CC)[C@@H](C)CC)[C@@H](C)CC)[C@@H](C)O` [Compound 60, [Gly2,Nle10,D-Phe11,Phe16] hGLP-2(1-33)-NH—CH2—((CH2)2O)3—(CH2)3—NH—C(O)—CH2—O—CH2—C(O)—NH2] (H-HGDGSFSDE[Nle][dF]TILDFLAARDFINWLIQTKITD-X2), for which the clearance was 0.29 mL/kg/min.

For `CCCC[C@H](NC(=O)[C@H](CCC(=O)O)NC(=O)[C@H](CC(=O)O)NC(=O)[C@H](CO)NC(=O)[C@H](Cc1ccccc1)NC(=O)[C@H](CO)NC(=O)CNC(=O)[C@H](CC(=O)O)NC(=O)CNC(=O)[C@@H](N)Cc1c[nH]cn1)C(=O)N[C@H](Cc1ccccc1)C(=O)N[C@H](C(=O)N[C@H](C(=O)N[C@@H](CC(C)C)C(=O)N[C@@H](CC(=O)O)C(=O)N[C@@H](Cc1ccccc1)C(=O)N[C@@H](CC(C)C)C(=O)N[C@@H](C)C(=O)N[C@@H](C)C(=O)N[C@@H](CCCNC(=N)N)C(=O)N[C@@H](CC(=O)O)C(=O)N[C@@H](Cc1ccccc1)C(=O)N[C@H](C(=O)N[C@@H](CC(N)=O)C(=O)N[C@@H](Cc1c[nH]c2ccccc12)C(=O)N[C@@H](CC(C)C)C(=O)N[C@H](C(=O)N[C@@H](CCC(N)=O)C(=O)N[C@H](C(=O)N[C@@H](CCCCN)C(=O)N[C@H](C(=O)N[C@H](C(=O)N[C@@H](CC(=O)O)C(=O)NCCCOCCOCCOCCCNC(=O)COCC(=O)NCCOCCOCCOCCOCCOCCOCCC(N)=O)[C@@H](C)O)[C@@H](C)CC)[C@@H](C)O)[C@@H](C)CC)[C@@H](C)CC)[C@@H](C)CC)[C@@H](C)O` [Compound 61, [Gly2,Nle10,D-Phe11,Phe16] hGLP-2(1-33)-NH—CH2—((CH2)2O)3—(CH2)3—NH—C(O)—CH2—O—CH2—C(O)—NH—((CH2)2O)6—(CH2)2—C(O)—NH2] (H-HGDGSFSDE[Nle][dF]TILDFLAARDFINWLIQTKITD-X1), the clearance came to 0.16 mL/kg/min.

`CCCC[C@H](NC(=O)[C@H](CCC(=O)O)NC(=O)[C@H](CC(=O)O)NC(=O)[C@H](CO)NC(=O)[C@H](Cc1ccccc1)NC(=O)[C@H](CO)NC(=O)CNC(=O)[C@H](CC(=O)O)NC(=O)CNC(=O)[C@@H](N)Cc1c[nH]cn1)C(=O)N[C@H](Cc1ccccc1)C(=O)N[C@H](C(=O)N[C@H](C(=O)N[C@@H](CC(C)C)C(=O)N[C@@H](CC(=O)O)C(=O)N[C@@H](Cc1ccccc1)C(=O)N[C@@H](CC(C)C)C(=O)N[C@@H](C)C(=O)N[C@@H](C)C(=O)N[C@@H](CCCNC(=N)N)C(=O)N[C@@H](CC(=O)O)C(=O)N[C@@H](Cc1ccccc1)C(=O)N[C@H](C(=O)N[C@@H](CC(N)=O)C(=O)N[C@@H](Cc1c[nH]c2ccccc12)C(=O)N[C@@H](CC(C)C)C(=O)N[C@H](C(=O)N[C@@H](CCC(N)=O)C(=O)N[C@H](C(=O)N[C@@H](CCCCN)C(=O)N[C@H](C(=O)N[C@H](C(=O)N[C@@H](CC(=O)O)C(N)=O)[C@@H](C)O)[C@@H](C)CC)[C@@H](C)O)[C@@H](C)CC)[C@@H](C)CC)[C@@H](C)CC)[C@@H](C)O` [Compound 63, [Gly2,Nle10,D-Phe11,Phe16] hGLP-2(1-33)-NH2] (H-HGDGSFSDE[Nle][dF]TILDFLAARDFINWLIQTKITD-NH2): the clearance was found to be 0.24 mL/kg/min.

With `CCCC[C@H](NC(=O)[C@H](CCC(=O)O)NC(=O)[C@H](CC(=O)O)NC(=O)[C@H](CO)NC(=O)[C@H](Cc1ccccc1)NC(=O)[C@H](CO)NC(=O)CNC(=O)[C@H](CC(=O)O)NC(=O)CNC(=O)[C@@H](N)Cc1c[nH]cn1)C(=O)N[C@H](Cc1ccccc1)C(=O)N[C@H](C(=O)N[C@H](C(=O)N[C@@H](CC(C)C)C(=O)N[C@@H](CC(=O)O)C(=O)N[C@@H](Cc1ccccc1)C(=O)N[C@@H](CC(C)C)C(=O)N[C@@H](C)C(=O)N[C@@H](C)C(=O)N[C@@H](CCCNC(=N)N)C(=O)N[C@@H](CC(=O)O)C(=O)N[C@@H](Cc1ccccc1)C(=O)N[C@H](C(=O)N[C@@H](CC(N)=O)C(=O)N[C@@H](Cc1c[nH]c2ccccc12)C(=O)N[C@@H](CC(C)C)C(=O)N[C@H](C(=O)N[C@@H](CCC(N)=O)C(=O)N[C@H](C(=O)N[C@@H](CCCCN)C(=O)N[C@H](C(=O)N[C@H](C(=O)N[C@@H](CC(=O)O)C(=O)O)[C@@H](C)O)[C@@H](C)CC)[C@@H](C)O)[C@@H](C)CC)[C@@H](C)CC)[C@@H](C)CC)[C@@H](C)O` [Compound 64, [Gly2,Nle10,D-Phe11,Phe16] hGLP-2(1-33)-OH] (H-HGDGSFSDE[Nle][dF]TILDFLAARDFINWLIQTKITD-OH), the clearance is 0.15 mL/kg/min.

With `CCCC[C@H](NC(=O)[C@H](CCC(=O)O)NC(=O)[C@H](CC(=O)O)NC(=O)[C@H](CO)NC(=O)[C@H](Cc1ccccc1)NC(=O)[C@H](CO)NC(=O)CNC(=O)[C@H](CC(=O)O)NC(=O)CNC(=O)[C@@H](N)Cc1c[nH]cn1)C(=O)N[C@H](Cc1cccc(Cl)c1)C(=O)N[C@H](C(=O)N[C@H](C(=O)N[C@@H](CC(C)C)C(=O)N[C@@H](CC(=O)O)C(=O)N[C@@H](Cc1ccccc1)C(=O)N[C@@H](CC(C)C)C(=O)N[C@@H](C)C(=O)N[C@@H](C)C(=O)N[C@@H](CCCNC(=N)N)C(=O)N[C@@H](CC(=O)O)C(=O)N[C@@H](Cc1ccccc1)C(=O)N[C@H](C(=O)N[C@@H](CC(N)=O)C(=O)N[C@@H](Cc1c[nH]c2ccccc12)C(=O)N[C@@H](CC(C)C)C(=O)N[C@H](C(=O)N[C@@H](CCC(N)=O)C(=O)N[C@H](C(=O)N[C@@H](CCCCN)C(=O)N[C@H](C(=O)N[C@H](C(=O)N[C@@H](CC(=O)O)C(N)=O)[C@@H](C)O)[C@@H](C)CC)[C@@H](C)O)[C@@H](C)CC)[C@@H](C)CC)[C@@H](C)CC)[C@@H](C)O` [Compound 66, [Gly2,Nle10,D-3-Cpa11,Phe16] hGLP-2(1-33)-NH2] (H-HGDGSFSDE[Nle][dPhe(3-Cl)]TILDFLAARDFINWLIQTKITD-NH2), the clearance is 0.12 mL/kg/min.

Take `CCCC[C@H](NC(=O)[C@H](CCC(=O)O)NC(=O)[C@H](CC(=O)O)NC(=O)[C@H](CO)NC(=O)[C@H](Cc1ccccc1)NC(=O)[C@H](CO)NC(=O)CNC(=O)[C@H](CC(=O)O)NC(=O)CNC(=O)[C@@H](N)Cc1c[nH]cn1)C(=O)N[C@H](Cc1cccs1)C(=O)N[C@H](C(=O)N[C@H](C(=O)N[C@@H](CC(C)C)C(=O)N[C@@H](CC(=O)O)C(=O)N[C@@H](Cc1ccccc1)C(=O)N[C@@H](CC(C)C)C(=O)N[C@@H](C)C(=O)N[C@@H](C)C(=O)N[C@@H](CCCNC(=N)N)C(=O)N[C@@H](CC(=O)O)C(=O)N[C@@H](Cc1ccccc1)C(=O)N[C@H](C(=O)N[C@@H](CC(N)=O)C(=O)N[C@@H](Cc1c[nH]c2ccccc12)C(=O)N[C@@H](CC(C)C)C(=O)N[C@H](C(=O)N[C@@H](CCC(N)=O)C(=O)N[C@H](C(=O)N[C@@H](CCCCN)C(=O)N[C@H](C(=O)N[C@H](C(=O)N[C@@H](CC(=O)O)C(N)=O)[C@@H](C)O)[C@@H](C)CC)[C@@H](C)O)[C@@H](C)CC)[C@@H](C)CC)[C@@H](C)CC)[C@@H](C)O` [Compound 68, [Gly2,Nle10,D-Thi11,Phe16] hGLP-2(1-33)-NH2] (H-HGDGSFSDE[Nle][d2Thi]TILDFLAARDFINWLIQTKITD-NH2): the clearance came out at 0.15 mL/kg/min.
